Drawing on patent US8691865B2 (AbbVie Inc., priority 2008, dated 2014), this text covers IC50 for 30 compounds.

Molecules are shown by their SMILES.

The target in this assay is human Cav2.2 (Homo sapiens, UniProt Q00975). Kind of assay: Assessment of calcium channel activity using FLIPR (Ca2+ influx in IMR32 cells). Format: cell-based. A digest of the protocol: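 IC50 values derive from nonlinear sigmoidal fitting of percent inhibition, relative to inhibitor-free activity, of Ca2+ influx read by FLIPR. Cells were IMR32 human neuroblastoma, plated at 1−1.2×10^5 per well and grown 48 h at 37 °C.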
Sequence of human Cav2.2 (Q00975 whole entry): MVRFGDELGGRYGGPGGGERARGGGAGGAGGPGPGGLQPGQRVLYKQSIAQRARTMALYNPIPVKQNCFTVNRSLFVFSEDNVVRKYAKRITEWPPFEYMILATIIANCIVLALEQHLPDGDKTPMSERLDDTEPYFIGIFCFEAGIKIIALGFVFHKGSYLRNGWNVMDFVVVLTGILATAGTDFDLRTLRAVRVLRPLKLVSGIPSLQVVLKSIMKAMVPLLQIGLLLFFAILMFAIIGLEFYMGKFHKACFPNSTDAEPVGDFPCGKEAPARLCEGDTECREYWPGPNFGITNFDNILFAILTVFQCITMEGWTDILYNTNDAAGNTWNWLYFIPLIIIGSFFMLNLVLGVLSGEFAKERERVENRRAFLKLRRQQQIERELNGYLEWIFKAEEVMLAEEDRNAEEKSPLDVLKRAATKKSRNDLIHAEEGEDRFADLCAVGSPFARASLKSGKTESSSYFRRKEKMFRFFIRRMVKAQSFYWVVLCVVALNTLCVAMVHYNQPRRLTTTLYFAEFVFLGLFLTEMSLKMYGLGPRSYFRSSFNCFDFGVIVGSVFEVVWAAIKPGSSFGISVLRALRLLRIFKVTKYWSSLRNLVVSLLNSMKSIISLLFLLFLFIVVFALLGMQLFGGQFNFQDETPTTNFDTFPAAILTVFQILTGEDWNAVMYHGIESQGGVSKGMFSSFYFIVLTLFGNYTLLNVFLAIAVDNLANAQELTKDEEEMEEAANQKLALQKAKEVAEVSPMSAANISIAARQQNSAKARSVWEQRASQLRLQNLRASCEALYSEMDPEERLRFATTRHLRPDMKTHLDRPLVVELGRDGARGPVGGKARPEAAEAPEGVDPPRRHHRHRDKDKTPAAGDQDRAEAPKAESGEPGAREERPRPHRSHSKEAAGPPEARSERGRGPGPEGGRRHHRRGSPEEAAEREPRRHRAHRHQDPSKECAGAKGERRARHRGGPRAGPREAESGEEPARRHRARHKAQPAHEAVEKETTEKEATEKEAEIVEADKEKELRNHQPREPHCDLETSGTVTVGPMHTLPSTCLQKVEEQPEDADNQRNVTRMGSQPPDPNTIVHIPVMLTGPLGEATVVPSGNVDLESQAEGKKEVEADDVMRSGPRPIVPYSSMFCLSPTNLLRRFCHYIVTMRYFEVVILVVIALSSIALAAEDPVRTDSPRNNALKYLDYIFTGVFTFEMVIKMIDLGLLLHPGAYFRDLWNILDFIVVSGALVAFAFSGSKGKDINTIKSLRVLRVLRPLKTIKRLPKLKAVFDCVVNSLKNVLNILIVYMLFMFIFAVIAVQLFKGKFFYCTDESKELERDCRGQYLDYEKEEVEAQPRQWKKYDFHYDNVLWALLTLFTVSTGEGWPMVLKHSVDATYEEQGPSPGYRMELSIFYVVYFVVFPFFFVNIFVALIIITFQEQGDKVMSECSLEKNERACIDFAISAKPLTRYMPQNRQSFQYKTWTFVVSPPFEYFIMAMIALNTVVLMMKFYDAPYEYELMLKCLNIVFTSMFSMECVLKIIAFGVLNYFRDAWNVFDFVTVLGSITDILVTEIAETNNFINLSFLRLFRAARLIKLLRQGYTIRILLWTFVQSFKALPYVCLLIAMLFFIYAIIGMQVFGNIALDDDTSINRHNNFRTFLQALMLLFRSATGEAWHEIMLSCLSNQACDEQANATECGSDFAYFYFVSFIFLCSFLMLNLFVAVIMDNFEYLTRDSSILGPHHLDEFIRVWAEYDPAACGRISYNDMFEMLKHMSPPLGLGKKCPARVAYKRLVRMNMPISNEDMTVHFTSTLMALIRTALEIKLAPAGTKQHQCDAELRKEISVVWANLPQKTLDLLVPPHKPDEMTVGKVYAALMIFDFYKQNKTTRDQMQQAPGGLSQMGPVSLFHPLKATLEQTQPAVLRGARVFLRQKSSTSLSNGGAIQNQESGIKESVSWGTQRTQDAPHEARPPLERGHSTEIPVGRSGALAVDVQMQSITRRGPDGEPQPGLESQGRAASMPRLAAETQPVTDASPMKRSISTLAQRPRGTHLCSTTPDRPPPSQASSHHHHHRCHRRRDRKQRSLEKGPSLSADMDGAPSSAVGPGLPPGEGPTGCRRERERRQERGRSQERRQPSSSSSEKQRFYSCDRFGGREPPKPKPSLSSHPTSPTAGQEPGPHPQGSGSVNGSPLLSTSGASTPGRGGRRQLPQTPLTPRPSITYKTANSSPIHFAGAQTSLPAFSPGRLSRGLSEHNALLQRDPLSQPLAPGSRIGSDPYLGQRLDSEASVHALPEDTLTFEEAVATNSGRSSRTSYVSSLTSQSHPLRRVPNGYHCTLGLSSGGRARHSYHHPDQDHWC
Sequence of human Cav2.2 (P54289 25-956 partner limits assumed): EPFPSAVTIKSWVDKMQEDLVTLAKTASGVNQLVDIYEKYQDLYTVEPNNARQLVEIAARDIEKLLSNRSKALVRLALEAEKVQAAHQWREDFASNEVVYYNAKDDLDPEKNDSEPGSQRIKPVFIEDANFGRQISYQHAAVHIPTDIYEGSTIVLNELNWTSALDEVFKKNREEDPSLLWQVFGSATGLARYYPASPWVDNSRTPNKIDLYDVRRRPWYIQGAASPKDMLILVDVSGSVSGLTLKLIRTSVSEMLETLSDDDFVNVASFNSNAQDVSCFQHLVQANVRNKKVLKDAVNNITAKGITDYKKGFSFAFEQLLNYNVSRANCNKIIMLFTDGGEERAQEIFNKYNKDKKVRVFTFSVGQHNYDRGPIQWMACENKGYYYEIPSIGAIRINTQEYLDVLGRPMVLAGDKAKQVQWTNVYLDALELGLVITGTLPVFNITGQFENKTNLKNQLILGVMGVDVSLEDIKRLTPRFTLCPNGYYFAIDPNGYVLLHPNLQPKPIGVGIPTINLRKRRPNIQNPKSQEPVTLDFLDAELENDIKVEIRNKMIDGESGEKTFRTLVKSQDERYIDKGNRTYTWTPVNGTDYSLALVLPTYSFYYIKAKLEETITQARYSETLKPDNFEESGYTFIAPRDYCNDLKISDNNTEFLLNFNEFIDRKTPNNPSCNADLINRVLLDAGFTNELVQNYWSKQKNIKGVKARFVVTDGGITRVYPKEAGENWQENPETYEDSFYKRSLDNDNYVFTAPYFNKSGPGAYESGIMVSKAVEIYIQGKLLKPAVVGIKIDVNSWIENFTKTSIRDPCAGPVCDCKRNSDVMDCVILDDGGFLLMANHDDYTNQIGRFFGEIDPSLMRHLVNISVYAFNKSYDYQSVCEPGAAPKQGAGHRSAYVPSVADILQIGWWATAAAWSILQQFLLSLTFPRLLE
Sequence of human Cav2.2 (P54289 957-1103 partner limits assumed): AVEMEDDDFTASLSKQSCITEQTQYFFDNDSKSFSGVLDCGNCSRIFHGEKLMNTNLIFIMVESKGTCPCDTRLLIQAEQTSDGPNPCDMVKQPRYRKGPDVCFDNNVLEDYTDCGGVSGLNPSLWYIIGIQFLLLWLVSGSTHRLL
Sequence of human Cav2.2 (P54284 whole entry partner): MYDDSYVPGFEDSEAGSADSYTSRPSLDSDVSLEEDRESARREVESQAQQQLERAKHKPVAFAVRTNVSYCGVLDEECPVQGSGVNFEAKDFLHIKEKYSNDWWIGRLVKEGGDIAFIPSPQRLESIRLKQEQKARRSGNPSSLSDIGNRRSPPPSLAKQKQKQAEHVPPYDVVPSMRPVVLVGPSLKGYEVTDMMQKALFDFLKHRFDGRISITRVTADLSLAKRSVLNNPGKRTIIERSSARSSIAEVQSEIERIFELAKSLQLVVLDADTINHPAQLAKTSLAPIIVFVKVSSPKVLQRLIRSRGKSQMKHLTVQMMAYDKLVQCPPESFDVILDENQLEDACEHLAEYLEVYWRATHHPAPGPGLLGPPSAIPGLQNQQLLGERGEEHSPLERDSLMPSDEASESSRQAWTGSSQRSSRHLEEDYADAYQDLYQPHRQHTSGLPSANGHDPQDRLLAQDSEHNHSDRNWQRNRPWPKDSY
Take `Fc1ccc2nc(CN[C@H]3CC[C@@H]4CN(c5cccc(C(F)(F)F)n5)C[C@@H]43)[nH]c2c1` [Example 691, (3aR,4S,6aS)-N-[(6-fluoro-1H-benzimidazol-2-yl)methyl]-2-[6-(trifluoromethyl)pyridin-2-yl]octahydrocyclopenta[c]pyrrol-4-amine]: the concentration for half-maximal inhibition (IC50) was 0.61 µM.

On to `FC(F)(F)c1cccc(N2C[C@H]3CC[C@H](NCc4c[nH]nn4)[C@H]3C2)n1` [Example 694, (3aR,4S,6aS)-N-(1H-1,2,3-triazol-4-ylmethyl)-2-[6-(trifluoromethyl)pyridin-2-yl]octahydrocyclopenta[c]pyrrol-4-amine], for which the IC50 was found to be 4 µM.

`Cc1n[nH]cc1CN[C@H]1CC[C@@H]2CN(c3cccc(C(F)(F)F)n3)C[C@@H]21` [Example 695, (3aR,4S,6aS)-N-[(3-methyl-1H-pyrazol-4-yl)methyl]-2-[6-(trifluoromethyl)pyridin-2-yl]octahydrocyclopenta[c]pyrrol-4-amine]: the IC50 came to 2.55 µM.

With `FC(F)(F)c1cccc(N2C[C@H]3CC[C@H](NCc4cn[nH]c4)[C@H]3C2)n1` [Example 696, (3aR,4S,6aS)-N-(1H-pyrazol-4-ylmethyl)-2-[6-(trifluoromethyl)pyridin-2-yl]octahydrocyclopenta[c]pyrrol-4-amine], the IC50 came to 3.52 µM.

In the case of `O=C(N[C@H]1CC[C@@H]2CN(c3cccc(C(F)(F)F)n3)C[C@@H]21)c1cc2cc(F)ccc2[nH]1` [Example 697, 5-fluoro-N-{(3aR,4S,6aS)-2-[6-(trifluoromethyl)pyridin-2-yl]octahydrocyclopenta[c]pyrrol-4-yl}-1H-indole-2-carboxamide], the IC50 turned out to be 2.24 µM.

`O=C(N[C@H]1CC[C@@H]2CN(c3ccc(F)cc3C(F)(F)F)C[C@@H]21)[C@@H]1C[C@@H](F)CN1` [Example 698, (4R)-4-fluoro-N-{(3aR,4S,6aS)-2-[4-fluoro-2-(trifluoromethyl)phenyl]octahydrocyclopenta[c]pyrrol-4-yl}-L-prolinamide]: the 50% inhibitory concentration (IC50) turned out to be 1.52 µM.

For the compound `CN[C@@H](CC(C)C)C(=O)N[C@H]1CC[C@@H]2CN(c3ccccc3OC(F)(F)F)C[C@@H]21` [Example 699, N^2-methyl-N-{(3aR,4S,6aS)-2-[2-(trifluoromethoxy)phenyl]octahydrocyclopenta[c]pyrrol-4-yl}-L-leucinamide], the half-maximal inhibitory concentration (IC50) is 0.65 µM.

With `O=S(=O)(N[C@H]1CC[C@@H]2CN(c3cccc(C(F)(F)F)n3)C[C@@H]21)c1ccc(Cl)cc1` [Example 700, 4-chloro-N-{(3aR,4S,6aS)-2-[6-(trifluoromethyl)pyridin-2-yl]octahydrocyclopenta[c]pyrrol-4-yl}benzenesulfonamide], the concentration for half-maximal inhibition (IC50) amounted to 4.96 µM.

With `O=S(=O)(N[C@H]1CC[C@@H]2CN(c3cccc(C(F)(F)F)n3)C[C@@H]21)c1ccccc1Cl` [Example 701, 2-chloro-N-{(3aR,4S,6aS)-2-[6-(trifluoromethyl)pyridin-2-yl]octahydrocyclopenta[c]pyrrol-4-yl}benzenesulfonamide], the IC50 turned out to be 4.5 µM.

Turning to `O=S(=O)(N[C@H]1CC[C@@H]2CN(c3cccc(C(F)(F)F)n3)C[C@@H]21)c1cccc(F)c1` [Example 702, 3-fluoro-N-{(3aR,4S,6aS)-2-[6-(trifluoromethyl)pyridin-2-yl]octahydrocyclopenta[c]pyrrol-4-yl}benzenesulfonamide], the IC50 is 2.55 µM.

With `O=S(=O)(N[C@H]1CC[C@@H]2CN(c3cccc(C(F)(F)F)n3)C[C@@H]21)c1ccccc1F` [Example 703, 2-fluoro-N-{(3aR,4S,6aS)-2-[6-(trifluoromethyl)pyridin-2-yl]octahydrocyclopenta[c]pyrrol-4-yl}benzenesulfonamide], the concentration for half-maximal inhibition (IC50) was determined as 3.17 µM.

For `O=S(=O)(N[C@H]1CC[C@@H]2CN(c3cccc(C(F)(F)F)n3)C[C@@H]21)c1cccc(Cl)c1` [Example 704, 3-chloro-N-{(3aR,4S,6aS)-2-[6-(trifluoromethyl)pyridin-2-yl]octahydrocyclopenta[c]pyrrol-4-yl}benzenesulfonamide], the IC50 turned out to be 4.63 µM.

With `O=S(=O)(N[C@H]1CC[C@@H]2CN(c3cccc(C(F)(F)F)n3)C[C@@H]21)c1ccc(F)cc1` [Example 705, 4-fluoro-N-{(3aR,4S,6aS)-2-[6-(trifluoromethyl)pyridin-2-yl]octahydrocyclopenta[c]pyrrol-4-yl}benzenesulfonamide], the IC50 turned out to be 3.82 µM.

Turning to `CC(C)C[C@H](N[C@H]1CC[C@@H]2CN(c3cccc(C(F)(F)F)n3)C[C@@H]21)C(N)=O` [Example 706, N^2-{(3aR,4S,6aS)-2-[6-(trifluoromethyl)pyridin-2-yl]octahydrocyclopenta[c]pyrrol-4-yl}-L-leucinamide], the IC50 stood at 1.12 µM.

On to `CN[C@@H](CC(C)C)C(=O)N[C@H]1CC[C@@H]2CN(c3ccc(SC(F)(F)F)cc3)C[C@@H]21` [Example 707, N^2-methyl-N-[(3aR,4S,6aS)-2-{4-[(trifluoromethyl)thio]phenyl}octahydrocyclopenta[c]pyrrol-4-yl]-L-leucinamide], for which the IC50 stood at 7.26 µM.

On to `O=S(=O)(N[C@H]1CC[C@@H]2CN(c3cccc(C(F)(F)F)n3)C[C@@H]21)c1ccccc1` [Example 708, N-{(3aR,4S,6aS)-2-[6-(trifluoromethyl)pyridin-2-yl]octahydrocyclopenta[c]pyrrol-4-yl}benzenesulfonamide], for which the IC50 is 3.35 µM.

Turning to `O=C(Nc1ccc(F)cc1)N[C@H]1CC[C@@H]2CN(c3cccc(C(F)(F)F)n3)C[C@@H]21` [Example 709, 1-(4-fluorophenyl)-3-{(3aR,4S,6aS)-2-[6-(trifluoromethyl)pyridin-2-yl]octahydrocyclopenta[c]pyrrol-4-yl}urea], the IC50 came to 6.18 µM.

As for `O=S(=O)(N[C@H]1CC[C@@H]2CN(c3cccc(C(F)(F)F)n3)C[C@@H]21)c1ccc(F)c(Cl)c1` [Example 710, 3-chloro-4-fluoro-N-{(3aR,4S,6aS)-2-[6-(trifluoromethyl)pyridin-2-yl]octahydrocyclopenta[c]pyrrol-4-yl}benzenesulfonamide], the IC50 was 5.56 µM.

Take `CC(C)(C)NC(=O)N[C@H]1CC[C@@H]2CN(c3cccc(C(F)(F)F)n3)C[C@@H]21` [Example 711, 1-tert-butyl-3-{(3aR,4S,6aS)-2-[6-(trifluoromethyl)pyridin-2-yl]octahydrocyclopenta[c]pyrrol-4-yl}urea]: the IC50 was determined as 1.38 µM.

As for `CN[C@@H](CC(C)C)C(=O)N[C@H]1CC[C@@H]2CN(c3cccc(SC(F)(F)F)c3)C[C@@H]21` [Example 712, N^2-methyl-N-[(3aR,4S,6aS)-2-{3-[(trifluoromethyl)thio]phenyl]octahydrocyclopenta[c]pyrrol-4-yl}-L-leucinamide], the IC50 is 1.01 µM.

With `O=C(Nc1ccc(Cl)cc1)N[C@H]1CC[C@@H]2CN(c3cccc(C(F)(F)F)n3)C[C@@H]21` [Example 713, 1-(4-chlorophenyl)-3-{(3aR,4S,6aS)-2-[6-(trifluoromethyl)pyridin-2-yl]octahydrocyclopenta[c]pyrrol-4-yl}urea], the IC50 was 2.99 µM.

On to `O=C(Nc1ccc(F)c(Cl)c1)N[C@H]1CC[C@@H]2CN(c3cccc(C(F)(F)F)n3)C[C@@H]21` [Example 714, 1-(3-chloro-4-fluorophenyl)-3-{(3aR,4S,6aS)-2-[6-(trifluoromethyl)pyridin-2-yl]octahydrocyclopenta[c]pyrrol-4-yl}urea], for which the IC50 came out at 2.8 µM.

Take `Fc1ccc2[nH]c(CN[C@H]3CC[C@@H]4CN(c5cccc(OC(F)(F)F)c5)C[C@@H]43)cc2c1` [Example 715, (3aR,4S,6aS)-N-[(5-fluoro-1H-indol-2-yl)methyl]-2-[3-(trifluoromethoxy)phenyl]octahydrocyclopenta[c]pyrrol-4-amine]: the IC50 was found to be 2.78 µM.

Regarding `Fc1ccc2[nH]c(CN[C@H]3CC[C@@H]4CN(c5ccc(OC(F)(F)F)cc5)C[C@@H]43)cc2c1` [Example 716, (3aR,4S,6aS)-N-[(5-fluoro-1H-indol-2-yl)methyl]-2-[4-(trifluoromethoxy)phenyl]octahydrocyclopenta[c]pyrrol-4-amine], the IC50 was 8.15 µM.

`O=S(=O)(Cc1ccc(Cl)cc1)N[C@H]1CC[C@@H]2CN(c3cccc(C(F)(F)F)n3)C[C@@H]21` [Example 717, 1-(4-chlorophenyl)-N-{(3aR,4S,6aS)-2-[6-(trifluoromethyl)pyridin-2-yl]octahydrocyclopenta[c]pyrrol-4-yl}methanesulfonamide]: the IC50 is 3.54 µM.

For `CCC[C@H](NC)C(=O)N[C@H]1CC[C@@H]2CN(c3ccc(OC(F)(F)F)cc3)C[C@@H]21` [Example 719, N^2-methyl-N-{(3aR,4S,6aS)-2-[4-(trifluoromethoxy)phenyl]octahydrocyclopenta[c]pyrrol-4-yl}-L-norvalinamide], the IC50 was 10.6 µM.

`Cn1c(CN[C@H]2CC[C@@H]3CN(c4cccc(C(F)(F)F)n4)C[C@@H]32)cc2ccccc21` [Example 720, (3aR,4S,6aS)-N-[(1-methyl-1H-indol-2-yl)methyl]-2-[6-(trifluoromethyl)pyridin-2-yl]octahydrocyclopenta[c]pyrrol-4-amine]: the IC50 came out at 1.44 µM.

Take `FC(F)(F)c1cccc(N2C[C@H]3CC[C@H](NCc4cc5ccncc5s4)[C@H]3C2)n1` [Example 721, (3aR,4S,6aS)-N-(thieno[2,3-c]pyridin-2-ylmethyl)-2-[6-(trifluoromethyl)pyridin-2-yl]octahydrocyclopenta[c]pyrrol-4-amine]: the IC50 is 0.87 µM.

`CN[C@@H](CC(C)C)C(=O)N[C@H]1CC[C@@H]2CN(c3ccnc(C(F)(F)F)n3)C[C@@H]21` [Example 723, N^2-methyl-N-{(3aR,4S,6aS)-2-[2-(trifluoromethyl)pyrimidin-4-yl]octahydrocyclopenta[c]pyrrol-4-yl}-L-leucinamide]: the IC50 amounted to 11.9 µM.

`CN[C@@H](CC(C)C)C(=O)N[C@H]1CC[C@@H]2CN(c3ccc(C(F)(F)F)nn3)C[C@@H]21` [Example 724, N^2-methyl-N-{(3aR,4S,6aS)-2-[6-(trifluoromethyl)pyridazin-3-yl]octahydrocyclopenta[c]pyrrol-4-yl}-L-leucinamide]: the half-maximal inhibitory concentration (IC50) is 22.3 µM.
